Experimental data from patent publication US6008240A, “2-(1H-4(5)-imidazoyl) cyclopropyl derivatives” (Gliatech, Inc., priority 1997, dated 1999).
Counter-ions that a name gives are not always drawn. Like-named read-outs stand apart in the source and are kept apart here.

Legend:
H3 receptor = details: cited from earlier work
H3 = details: cited from earlier work
[1] = dose-dependent; species not printed in this sentence (preceding sentence: cat); cited from earlier work
[2] = intraventricular; saline and pentobarbital-treated rats; cited from earlier work
[3] = intraventricular; rabbits; cited from earlier work
Histamine H3 Receptor = target: T1, Histamine H3 Receptor (Rattus norvegicus, UniProt Q9QYN8); experiment: In Vitro Histamine H3 Receptor Binding Analysis ([3H]-Nα-methylhistamine, rat cortical membranes)
T1 construct: from tissue; host or cells: rat cerebral cortex membranes
Experimental: Histamine H3 receptor affinity was determined in rat cortical membranes using the H3 selective agonist ligand, [^3 H]-N^α -methylhistamine (78.9 Ci/mmole, DuPont NEN Research Products, Boston, Mass.) according to the method of West et al., (1990) Mol. Pharmacol. 38: 610-613 with modifications. Briefly, animals were sacrificed by decapitation and the cerebral cortex was rapidly removed. Rat cortices were mechanically homogenized with an Omni 1000 motor driven homogenizer in 10 volumes (wt/vol) of Krebs-Ringers Hepes buffer (pH 7.4) containing the following protease inhibitors; EDTA (10 mmol), PMSF (0.1 mM), chymostatin (0.2 mg/50 mL) and leupeptin (0.2 mg/50 mL). The homogenate was centrifuged in a Sorvall at ~40,000 x g for 30 min. The pellet was resuspended by mechanical homogenization in 25 mL water and lysed on ice for 30 min. The homogenate was recentrifuged and the membrane lysis was repeated. The membranes were recentrifuged and the final pellet was resuspended in 14 volumes of water to give approximately 200 μg protein/100 μl final concentration. The suspension was stored at -80° C. prior to use. Protein concentrations were determined by Coomassie Plus Protein Assay (Pierce, Rockford, Ill.).
Nonspecific binding (NSB) was accounted for by the inclusion of thioperamide (10 μM). Samples were incubated for 40 minutes at 25° C. The samples were filtered through glass fiber strips, pre-washed with 0.3% polyethyleneimine, using a Brandell cell harvester. The filters were rapidly washed three times with 4 ml of 25 mM Tris buffer containing 145 mM NaCl (pH 7.4, 4° C.). Filters were transferred to polyethylene minivials and counted in 3.5 ml of scintillation fluid (Ecolume, ICN Biomedicals, Inc.). Using this procedure, the non-specific binding was less than 10% of the total binding and the binding to the glass fiber filters was negligible. Saturation and competition experiments were analyzed with the ReceptorFit saturation and competition curve fitting programs (Lundon Software, Inc., Cleveland, Ohio).

[4] = rat cortical membranes, 0.8-1.2 nM [3H]-Nα-methylhistamine, 40 minutes at 25° C., pH 7.4, read-out: H3 Receptor Ki

T1 sequence (Q9QYN8 whole entry): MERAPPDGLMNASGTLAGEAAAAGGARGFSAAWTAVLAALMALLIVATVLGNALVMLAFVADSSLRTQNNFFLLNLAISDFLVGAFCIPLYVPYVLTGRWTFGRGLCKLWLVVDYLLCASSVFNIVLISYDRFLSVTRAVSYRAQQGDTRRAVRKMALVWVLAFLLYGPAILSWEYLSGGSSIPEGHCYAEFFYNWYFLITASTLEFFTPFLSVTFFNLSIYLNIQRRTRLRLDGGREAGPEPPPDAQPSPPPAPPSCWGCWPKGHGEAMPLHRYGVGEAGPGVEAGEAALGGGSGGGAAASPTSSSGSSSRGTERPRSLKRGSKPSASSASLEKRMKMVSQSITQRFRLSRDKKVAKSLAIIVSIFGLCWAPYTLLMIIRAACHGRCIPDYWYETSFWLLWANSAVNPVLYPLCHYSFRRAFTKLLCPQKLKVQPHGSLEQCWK

COc1ccc(CC(=NO)C(=O)NCCc2c[nH]cn2)cc1Br
activity in an H3 receptor assay (H3 receptor): active in an H3 receptor assay
H3 antagonism on guinea pig ileum (H3): H3 antagonist on guinea pig ileum

S=C(NC1CCCCC1)N1CCC(c2cnc[nH]2)CC1 [thioperamide]
wakefulness [1]: enhanced wakefulness in a dose-dependent fashion

NCCc1c[nH]cn1 [histamine]
spontaneous locomotor activity, grooming and exploratory behavior [2]: increased spontaneous locomotor activity, grooming and exploratory behavior
arousal EEG pattern [3]: induces the appearances of an arousal EEG pattern

O=C(N[C@@H]1C[C@H]1c1c[nH]cn1)[C@@H]1CC2CCCCC2N1 (stereo partly drawn) [Example 14, (2R, 3R)-trans-(7-Azabicyclo[4.3.0]non-(S)-8-yl)-N-(2-imidazol-4-ylcyclopropyl)formamide]
Ki (Histamine H3 Receptor): 8.5 ± 0.7 nM

O=C(NCCc1ccccc1)[C@@H]1C[C@H]1c1c[nH]cn1 (relative stereo) [Example 9, (±)-trans-(2-imidazole-4-ylcyclopropyl)-N-(2-phenylethyl)formamide]
Ki (Histamine H3 Receptor; [4]): 163 ± 19 nM

C[C@H](NC(=O)[C@@H]1C[C@H]1c1cnc[nH]1)C1CCCCC1 (mixture of isomers) [Example 7, N-[(S)-1-cyclohexylethyl]-3-(1H-imidazol-4-yl)- trans-(2R,3R)-cyclopropanamide and N-[(S)-1-cyclohexylethyl]-3-(1H-imidazol-4-yl)-trans-(2S,3S)-cyclopropanamide hydrochloride]
Ki (Histamine H3 Receptor; [4]): 146 ± 13 nM
